Laboratory results: patent US12617792B2, “Purine derivative, intermediate and application thereof in preparing anticancer medicine” (SUZHOU RAYMON PHARMACEUTICALS COMPANY, LTD., priority 2019, dated 2026)

These compounds were tested against T1, PI3K-alpha enzyme (Homo sapiens, UniProt P42336) (assay: PI3-Kinase (human) HTRF Assay kit, PI3K alpha enzyme IC50 determination). Conditions: ATP 10 μM, PIP2 10 μM, 1% DMSO, double holes for each concentration, read-out: the half inhibitory concentrations (IC50) of the tested compounds on PI3K-alpha.
T1 construct: purchased Millipore 14-602
T1 sequence (P42336 whole entry): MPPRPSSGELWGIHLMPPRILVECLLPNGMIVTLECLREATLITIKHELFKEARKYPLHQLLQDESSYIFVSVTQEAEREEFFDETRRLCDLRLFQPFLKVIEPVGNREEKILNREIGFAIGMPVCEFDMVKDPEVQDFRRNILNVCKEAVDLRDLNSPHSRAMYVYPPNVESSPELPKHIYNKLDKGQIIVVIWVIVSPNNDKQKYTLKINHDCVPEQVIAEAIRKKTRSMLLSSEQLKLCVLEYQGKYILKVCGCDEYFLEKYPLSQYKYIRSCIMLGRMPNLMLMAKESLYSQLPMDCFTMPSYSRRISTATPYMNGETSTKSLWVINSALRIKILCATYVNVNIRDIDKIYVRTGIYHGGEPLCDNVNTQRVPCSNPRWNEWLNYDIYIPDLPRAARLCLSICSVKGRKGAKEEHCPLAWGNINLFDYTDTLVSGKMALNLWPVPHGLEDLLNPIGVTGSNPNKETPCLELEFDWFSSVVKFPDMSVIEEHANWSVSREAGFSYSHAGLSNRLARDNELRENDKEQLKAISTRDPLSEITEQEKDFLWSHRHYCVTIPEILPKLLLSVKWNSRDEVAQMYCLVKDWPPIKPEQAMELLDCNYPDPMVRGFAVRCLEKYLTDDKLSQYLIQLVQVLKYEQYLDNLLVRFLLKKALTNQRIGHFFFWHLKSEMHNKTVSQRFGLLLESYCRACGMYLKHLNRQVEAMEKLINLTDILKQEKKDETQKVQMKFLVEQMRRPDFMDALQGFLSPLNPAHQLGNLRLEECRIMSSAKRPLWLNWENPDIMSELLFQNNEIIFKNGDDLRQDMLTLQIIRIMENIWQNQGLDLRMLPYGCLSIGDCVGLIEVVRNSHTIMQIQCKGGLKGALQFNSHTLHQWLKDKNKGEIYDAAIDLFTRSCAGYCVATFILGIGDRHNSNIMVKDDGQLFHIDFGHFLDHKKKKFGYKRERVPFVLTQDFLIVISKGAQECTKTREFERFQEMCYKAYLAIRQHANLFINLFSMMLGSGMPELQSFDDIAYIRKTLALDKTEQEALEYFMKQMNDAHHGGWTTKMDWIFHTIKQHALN
T1 sequence (P27986 whole entry partner): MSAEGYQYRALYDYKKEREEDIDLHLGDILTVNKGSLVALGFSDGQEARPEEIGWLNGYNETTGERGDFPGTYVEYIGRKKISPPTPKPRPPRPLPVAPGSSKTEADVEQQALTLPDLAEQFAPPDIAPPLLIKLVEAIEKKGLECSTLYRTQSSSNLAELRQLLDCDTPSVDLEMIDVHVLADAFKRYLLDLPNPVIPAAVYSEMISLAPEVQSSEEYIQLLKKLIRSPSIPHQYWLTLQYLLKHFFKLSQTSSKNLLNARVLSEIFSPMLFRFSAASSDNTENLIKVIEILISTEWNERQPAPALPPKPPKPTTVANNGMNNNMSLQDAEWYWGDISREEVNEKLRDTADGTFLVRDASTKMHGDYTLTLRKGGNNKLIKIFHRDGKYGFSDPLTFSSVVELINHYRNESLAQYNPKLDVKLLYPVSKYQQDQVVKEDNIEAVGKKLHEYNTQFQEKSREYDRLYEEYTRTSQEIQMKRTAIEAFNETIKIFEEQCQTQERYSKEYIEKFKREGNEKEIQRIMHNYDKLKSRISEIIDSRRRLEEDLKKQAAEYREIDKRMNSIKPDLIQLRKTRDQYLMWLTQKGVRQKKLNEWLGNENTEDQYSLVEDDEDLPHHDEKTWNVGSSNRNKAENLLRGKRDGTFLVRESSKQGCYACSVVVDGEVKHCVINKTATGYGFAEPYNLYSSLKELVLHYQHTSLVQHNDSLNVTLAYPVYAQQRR
Assay type: biochemical
Procedure: Prepare fresh before each use. […] 1 μL of each was added to 24 μL 1× Reaction Buffer. 5 μL of each diluted solution was added into a 384-well plate and contained 1% DMSO. […] This working solution should be prepared with 0.1-0.2 ml more to meet the control usage and dead volume. […] In a 20 μL kinase reaction system, the concentration of ATP was 10 μM. For example, to prepare 2 ml ATP working solution, take 8 μL 10 mM ATP and add it to 1992 μL 1× reaction buffer.
`O=C(Nc1ccc(COCCN2CCOCC2)cc1)Nc1ccc(-c2nc(N3CCOCC3)c3[nH]cnc3n2)cc1` [RMP-D08, 1-(4-(6-morpholino-7H-purin-2-yl)phenyl)-3-(4-((2-morpholinoethoxy)methyl)phenyl)urea] gave an IC50 of 46.1 nM. For `O=C(Nc1ccc(CO)cc1)Nc1ccc(-c2nc(N3CCOCC3)c3[nH]cnc3n2)cc1` [RMP-D06, 1-(4-(hydroxymethyl)phenyl)-3-(4-(6-morpholino-7H-purin-2-yl)phenyl)urea], the IC50 was 22.6 nM. `O=C(Nc1ccc(-c2nc(N3CCOCC3)c3[nH]cnc3n2)cc1)Nc1ccc(CO)c(C(F)(F)F)c1` [RMP-D07, 1-(4-(hydroxymethyl)-3-(trifluoromethyl)phenyl)-3-(4-(6-morpholino-7H-purin-2-yl)phenyl)urea] was tested, and the IC50 was 215 nM.
